The subject of assay [1] is fatty acid synthesis pathway activity in MCF-7 human breast cancer cells. The assay is described as follows: [14C]acetate incorporation into total lipids. Type of assay: cell-based. The settings on record: MCF-7 cells, [14C]acetate into lipids; for IC50: Homo sapiens, MCF7. As to the method: This assay measures the incorporation of [^14C]acetate into total lipids and is a measure of fatty acid synthesis pathway activity in vitro. It is utilized to measure inhibition of fatty acid synthesis in vitro.
MCF-7 human breast cancer cells cultured as above, are plated at 5×10^4 cells per well in 24-well plates. Following overnight incubation, the compounds to be tested, solubilized in DMSO, are added at 5, 10, and 20 μg/ml in triplicate, with lower concentrations tested if necessary. DMSO is added to triplicate wells for a vehicle control. C75 is run at 5 and 10 μg/ml in triplicate as positive controls. After 4 hours of incubation, 0.25 μCi of [^14C]acetate (10 μl volume) is added to each well.
After 2 hours of additional incubation, medium is aspirated from the wells and 800 μl of chloroform:methanol (2:1) and 700 μl of 4 mM MgCl2 is added to each well. Contents of each well are transferred to 1.5 Eppendorf tubes, and spun at full-speed for 2 minutes in a high-speed Eppendorf Microcentrifuge 5415D. After removal of the aqueous (upper) layer, an additional 700 μl of chloroform:methanol (2:1) and 500 μl of 4 mM MgCl2 are added to each tube and then centrifuged for 1 minutes as above. The aqueous layer is removed with a Pasteur pipette and discarded. An additional 400 μl of chloroform:methanol (2:1) and 200 μl of 4 mM MgCl2 are added to each tube, then centrifuged and aqueous layer is discarded. The lower (organic) phase is transferred into a scintillation vial and dried at 40° C. under N2 gas. Once dried, 3 ml of scintillant (APB #NBC5104) is added and vials are counted for ^14C. The Beckman Scintillation counter calculates the average cpm values for triplicates.
The IC50 for the compounds is defined as the concentration of drug leading to a 50% reduction in [^14C]acetate incorporation into lipids compared to controls. This is determined by plotting the average cpm for each inhibitor concentration tested, performing linear regression and computing the best-fit line, r^2 values, and 95% confidence intervals. The average cpm values are computed by the Beckman scintillation counter (Model LS6500) for each compound concentration. Computation of linear regression, best-fit line, r^2, and 95% confidence intervals are calculated using Prism Version 3.0 (Graph Pad Software).

Assay [2] concerns the target T1, purified human FAS (Homo sapiens, UniProt P49327).
T1 construct: Human FAS was purified from cultured ZR-75-1 human breast cancer cells obtained from the American Type Culture Collection; endogenous in cells; host or cells: ZR-75-1 human breast cancer cells (ATCC); enzyme purified by PEG precipitation and Mono Q chromatography
The assay is described as follows: FAS enzymatic activity (malonyl-CoA dependent NADPH oxidation). Type of assay: biochemical. As to conditions: purified FAS from ZR-75-1 cells, OD340. As to the method: Human FAS was purified from cultured ZR-75-1 human breast cancer cells obtained from the American Type Culture Collection. The procedure, adapted from Linn et al., 1981, and Kuhajda et al., 1994, utilizes hypotonic lysis, successive polyethyleneglycol (PEG) precipitations, and anion exchange chromatography. ZR-75-1 cells are cultured at 37° C. with 5% CO2 in RPMI culture medium with 10% fetal bovine serum, penicillin and streptomycin.
Ten T150 flasks of confluent cells are lysed with 1.5 ml lysis buffer (20 mM Tris-HCl, pH 7.5, 1 mM EDTA, 0.1 mM phenylmethanesulfonyl fluoride (PMSF), 0.1% Igepal CA-630) and dounce homogenized on ice for 20 strokes. The lysate is centrifuged in JA-20 rotor (Beckman) at 20,000 rpm for 30 minutes at 4° C. and the supernatant is brought to 42 ml with lysis buffer. A solution of 50% PEG 8000 in lysis buffer is added slowly to the supernatant to a final concentration of 7.5%. After rocking for 60 minutes at 4° C., the solution is centrifuged in JA-20 rotor (Beckman) at 15,000 rpm for 30 minutes at 4° C. Solid PEG 8000 is then added to the supernatant to a final concentration of 15%. After the rocking and centrifugation is repeated as above, the pellet is resuspended overnight at 4° C. in 10 ml of Buffer A (20 mM K2HPO4, pH 7.4). After […] filtration, the protein solution is applied to a Mono Q 5/5 anion exchange column (Pharmacia). The column is washed for 15 minutes with buffer A at 1 ml/minute, and bound material is eluted with a linear 60-ml gradient over 60 minutes to 1 M KCl. FAS (MW˜270 kD) typically elutes at 0.25 M KCl in three 0.5 ml fractions identified using 4-15% SDS-PAGE with Coomassie G250 stain (Bio-Rad). FAS protein concentration is determined using the Coomassie Plus Protein Assay Reagent (Pierce) according to manufacturer's specifications using BSA as a standard. This procedure results in substantially pure preparations of FAS (>95%) as judged by Coomassie-stained gels.
FAS activity is measured by monitoring the malonyl-CoA dependent oxidation of NADPH spectrophotometrically at OD340 in 96-well plates (Dils et al and Arslanian et al, 1975). Each well contains 2 μg purified FAS, 100 mM K2HPO4, pH 6.5, 1 mM dithiothreitol (Sigma), and 187.5 μM β-NADPH (Sigma). Stock solutions of inhibitors are prepared in DMSO at 2, 1, and 0.5 mg/ml resulting in final concentrations of 20, 10, and 5 μg/ml when 1 μl of stock is added per well. For each experiment, cerulenin (Sigma) is run as a positive control along with DMSO controls, inhibitors, and blanks (no FAS enzyme) all in duplicate.
The assay is performed on a Molecular Devices SpectraMax Plus Spectrophotometer. The plate containing FAS, buffers, inhibitors, and controls are placed in the spectrophotometer heated to 37° C. Using the kinetic protocol, the wells are blanked on duplicate wells containing 100 μl of 100 mM K2HPO4, pH 6.5 and the plate is read at OD340 at 10 sec intervals for 5 minutes to measure any malonyl-CoA independent oxidation of NADPH. The plate is removed from the spectrophotometer and malonyl-CoA (67.4 μM, final concentration per well) and […] (61.8 μM, final concentration per well) are added to each well except to the blanks. The plate is read again as above with the kinetic protocol to measure the malonyl-CoA dependent NADPH oxidation. The difference between the ΔOD340 for the malonyl-CoA dependent and non-malonyl-CoA dependent NADPH oxidation is the specific FAS activity. Because of the purity of the FAS preparation, non-malonyl-CoA dependent NADPH oxidation is negligible.
The concentration of compound yielding 50% inhibition of FAS is the IC50. Graphs of ΔOD340 versus time are plotted by the SOFTmax PRO software (Molecular Devices) for each compound concentration. Computation of linear regression, best-fit line, r^2, and 95% confidence intervals are calculated using Prism Version 3.0 (Graph Pad Software).

Data on 6 compounds can be found in US20100029752A1, “NOVEL COMPOUNDS, PHARMACEUTICAL COMPOSITIONS CONTAINING SAME, AND METHODS OF USE FOR SAME” (priority 2005, published 2010).

In brackets after ≈: the same amount, converted by molar mass.

T1 sequence (P49327 whole entry): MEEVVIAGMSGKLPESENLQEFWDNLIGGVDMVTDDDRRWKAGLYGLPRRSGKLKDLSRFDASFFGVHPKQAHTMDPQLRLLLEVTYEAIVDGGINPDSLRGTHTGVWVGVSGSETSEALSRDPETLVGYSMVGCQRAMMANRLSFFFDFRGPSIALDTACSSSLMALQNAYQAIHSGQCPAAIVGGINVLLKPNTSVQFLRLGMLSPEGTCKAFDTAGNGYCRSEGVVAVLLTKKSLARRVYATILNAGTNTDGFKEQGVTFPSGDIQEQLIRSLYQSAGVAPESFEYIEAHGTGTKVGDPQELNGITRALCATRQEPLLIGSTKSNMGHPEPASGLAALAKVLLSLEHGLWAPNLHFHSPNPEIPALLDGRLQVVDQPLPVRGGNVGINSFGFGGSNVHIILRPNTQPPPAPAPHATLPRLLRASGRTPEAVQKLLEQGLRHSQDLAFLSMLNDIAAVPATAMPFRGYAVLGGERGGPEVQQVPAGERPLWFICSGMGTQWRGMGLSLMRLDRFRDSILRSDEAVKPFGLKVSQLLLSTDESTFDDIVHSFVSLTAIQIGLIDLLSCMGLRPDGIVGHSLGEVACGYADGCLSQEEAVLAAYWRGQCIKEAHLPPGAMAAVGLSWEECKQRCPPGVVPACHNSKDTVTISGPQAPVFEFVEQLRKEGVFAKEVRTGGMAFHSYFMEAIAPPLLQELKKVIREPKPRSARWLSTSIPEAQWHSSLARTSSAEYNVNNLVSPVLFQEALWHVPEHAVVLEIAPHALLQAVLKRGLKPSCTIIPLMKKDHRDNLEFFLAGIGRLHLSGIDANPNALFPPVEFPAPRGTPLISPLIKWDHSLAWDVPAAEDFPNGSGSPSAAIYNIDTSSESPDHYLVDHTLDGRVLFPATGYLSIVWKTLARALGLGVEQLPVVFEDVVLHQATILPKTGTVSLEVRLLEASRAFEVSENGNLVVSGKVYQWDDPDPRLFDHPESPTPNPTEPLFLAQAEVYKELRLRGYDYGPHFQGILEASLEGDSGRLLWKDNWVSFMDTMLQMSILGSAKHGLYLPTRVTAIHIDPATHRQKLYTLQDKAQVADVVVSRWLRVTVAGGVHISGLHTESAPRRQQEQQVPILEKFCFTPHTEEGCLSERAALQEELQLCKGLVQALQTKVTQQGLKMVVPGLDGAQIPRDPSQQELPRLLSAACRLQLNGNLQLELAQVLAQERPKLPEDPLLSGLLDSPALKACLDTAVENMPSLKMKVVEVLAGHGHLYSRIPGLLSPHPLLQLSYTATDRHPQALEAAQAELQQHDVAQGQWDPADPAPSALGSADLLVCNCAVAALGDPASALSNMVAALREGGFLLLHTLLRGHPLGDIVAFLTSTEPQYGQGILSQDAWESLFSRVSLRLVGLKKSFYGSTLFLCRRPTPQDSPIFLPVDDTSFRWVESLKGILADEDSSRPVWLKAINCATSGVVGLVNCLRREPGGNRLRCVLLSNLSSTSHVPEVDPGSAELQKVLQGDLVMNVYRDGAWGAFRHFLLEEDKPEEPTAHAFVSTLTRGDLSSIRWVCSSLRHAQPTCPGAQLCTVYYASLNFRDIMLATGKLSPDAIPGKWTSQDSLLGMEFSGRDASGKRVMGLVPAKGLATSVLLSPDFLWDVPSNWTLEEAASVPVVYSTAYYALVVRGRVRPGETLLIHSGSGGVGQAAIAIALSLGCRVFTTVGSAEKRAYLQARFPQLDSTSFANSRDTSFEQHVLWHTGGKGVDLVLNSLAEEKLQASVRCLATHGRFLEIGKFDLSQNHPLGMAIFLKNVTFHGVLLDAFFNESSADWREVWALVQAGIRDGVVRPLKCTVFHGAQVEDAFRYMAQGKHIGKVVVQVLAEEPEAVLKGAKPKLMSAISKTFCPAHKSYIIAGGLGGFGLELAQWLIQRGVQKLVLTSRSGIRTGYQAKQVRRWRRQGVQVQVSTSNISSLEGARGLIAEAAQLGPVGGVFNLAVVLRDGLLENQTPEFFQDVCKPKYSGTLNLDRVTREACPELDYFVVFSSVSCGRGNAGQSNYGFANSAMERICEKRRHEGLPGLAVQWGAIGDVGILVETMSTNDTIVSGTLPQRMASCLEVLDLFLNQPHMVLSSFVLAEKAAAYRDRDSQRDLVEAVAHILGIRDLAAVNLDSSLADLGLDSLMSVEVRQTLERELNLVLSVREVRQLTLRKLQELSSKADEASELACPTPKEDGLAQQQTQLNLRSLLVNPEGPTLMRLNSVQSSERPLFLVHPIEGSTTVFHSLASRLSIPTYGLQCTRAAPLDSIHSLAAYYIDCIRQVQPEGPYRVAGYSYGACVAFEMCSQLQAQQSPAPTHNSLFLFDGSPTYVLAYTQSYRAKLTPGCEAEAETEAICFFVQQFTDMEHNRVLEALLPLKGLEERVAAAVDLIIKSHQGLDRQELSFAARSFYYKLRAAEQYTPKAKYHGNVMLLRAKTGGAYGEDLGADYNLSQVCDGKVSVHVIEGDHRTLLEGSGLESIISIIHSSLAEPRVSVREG

In assay [1], `COC(=O)c1sc(C(=O)O)cc1O` displayed an IC50 of 55.2 µg/mL (≈ 273 µM). The “FAS (IC50)” value in assay [2] is “Neg”.

For the compound `CCCCCCCCNC(=O)c1cc(O)c(C(=O)OC)s1`, in assay [1], the midpoint of inhibition, the IC50, lay at 20.5 µg/mL (≈ 65.4 µM). Further, the “FAS (IC50)” value in assay [2] is given as “Neg”.

As to `C=CCNC(=O)c1cc(O)c(C(=O)OC)s1`, in assay [1], the “14C (IC50)” value was “Neg”. Further, the “FAS (IC50)” value in assay [2] is “Neg”.

Regarding `CCCCCCCCNNC(=O)c1cc(O)c(C(=O)OC)s1`, in assay [1], the IC50 is 41.2 µg/mL (≈ 125 µM). Moreover, the “FAS (IC50)” value in assay [2] is recorded as “Neg”.

For `COC(=O)c1sc(C(=O)NNc2ccc(Cl)cc2)cc1O`, the IC50 in assay [1] was 25.2 µg/mL (≈ 77.1 µM); in assay [2] it was 230 µM.

Regarding `CCCCCCCCNC(=O)c1cc(O)cs1`, in assay [1], inhibition was half-maximal at 17.6 ± 1.9 µg/mL (≈ 68.9 µM) (IC50). Further, the “FAS (IC50)” value in assay [2] was “Neg”.

As usually defined, the IC50 is the concentration that gives 50% inhibition. A low value points to higher potency.
